Measurements as given in patent US20030114666A1, “Antibacterial agents” (priority 2001, published 2003).
Read-outs that look alike come from different tables or passages of the source.

Key:
E. coli Tol C = assay: Test A antibacterial assay, standard microtitration (MIC); type: cell-based; conditions: for Minimum Inhibitory Concentrations E. coli Tol C: Gram negative
Procedure: (§1) Test A-Antibacterial Assay
(§2) The compounds of the present invention were tested against an assortment of Gram-negative and Gram-positive organisms using standard microtitration techniques (Cohen, et al., Antimicrob. Agents Chemother., 1985;28:766; Heifetz, et al., Antimicrob. Agents Chemother:, 1974;6:124). […]

E. coli B90 = assay: as above; type: cell-based; conditions: Gram negative, E. coli B90
Procedure: as §1, §2

S. pyogenes C203 = assay: as above; type: cell-based; conditions: Gram positive, S. pyogenes C203
Procedure: as §1, §2

S. aureus 29213 = assay: as above; type: cell-based; conditions: Gram positive, S. aureus 29213
Procedure: as §1, §2

E. coli MC 4100 = assay: as above; type: cell-based; conditions: Gram negative, E. coli MC 4100
Procedure: as §1, §2

E. faecalis RB1 = assay: as above; type: cell-based; conditions: Gram positive, E. faecalis RB1
Procedure: as §1, §2

E. coli gyrase = E. coli gyrase (Escherichia coli, UniProt P0AES4+P0AES6); assay: biochemical
Chain of E. coli gyrase (P0AES4 whole entry, one chain of several): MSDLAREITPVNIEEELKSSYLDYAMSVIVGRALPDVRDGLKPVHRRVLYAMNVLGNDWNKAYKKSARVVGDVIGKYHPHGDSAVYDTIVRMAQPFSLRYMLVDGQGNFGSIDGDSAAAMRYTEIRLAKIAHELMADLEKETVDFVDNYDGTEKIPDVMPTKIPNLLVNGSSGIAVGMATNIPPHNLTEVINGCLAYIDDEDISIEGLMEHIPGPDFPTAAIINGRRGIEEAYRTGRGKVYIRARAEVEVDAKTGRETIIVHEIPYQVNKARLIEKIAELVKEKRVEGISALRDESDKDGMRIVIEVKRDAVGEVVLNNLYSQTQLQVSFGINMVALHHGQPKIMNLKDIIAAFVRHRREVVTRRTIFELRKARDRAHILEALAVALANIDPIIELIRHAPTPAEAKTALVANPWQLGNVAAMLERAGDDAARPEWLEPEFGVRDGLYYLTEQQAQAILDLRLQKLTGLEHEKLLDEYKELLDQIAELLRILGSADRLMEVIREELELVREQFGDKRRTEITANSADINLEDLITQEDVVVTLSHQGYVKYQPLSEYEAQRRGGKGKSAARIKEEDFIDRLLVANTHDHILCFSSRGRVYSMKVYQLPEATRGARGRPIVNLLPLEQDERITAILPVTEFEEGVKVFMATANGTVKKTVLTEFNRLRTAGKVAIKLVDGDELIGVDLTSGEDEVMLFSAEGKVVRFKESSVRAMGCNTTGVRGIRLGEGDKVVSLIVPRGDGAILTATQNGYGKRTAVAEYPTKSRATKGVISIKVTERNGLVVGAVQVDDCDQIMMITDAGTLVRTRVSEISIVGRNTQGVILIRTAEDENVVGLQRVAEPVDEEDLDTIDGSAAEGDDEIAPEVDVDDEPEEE

[1] = supercoiling of relaxed pBR322, 30 minutes at 37° C.

Molecule	Minimum Inhibitory Concentrations E. coli Tol C (E. coli Tol C)	Minimum Inhibitory Concentrations E. coli B90 (E. coli B90)	Minimum Inhibitory Concentrations S. pyogenes C203 (S. pyogenes C203)	Minimum Inhibitory Concentrations S. aureus 29213 (S. aureus 29213)	Minimum Inhibitory Concentrations E. coli MC 4100 (E. coli MC 4100)	Minimum Inhibitory Concentrations E. faecalis RB1 (E. faecalis RB1)	IC50 (E. coli gyrase; [1])	IC50 (E. coli gyrase)	MIC (E. coli Tol C; Escherichia coli, read-out: Minimum Inhibitory Concentrations E. coli Tol C)	MIC (E. coli B90; Escherichia coli, read-out: Minimum Inhibitory Concentrations E. coli B90)	MIC (S. pyogenes C203; Streptococcus pyogenes, read-out: Minimum Inhibitory Concentrations S. pyogenes C203)	MIC (S. aureus 29213; Staphylococcus aureus, read-out: Minimum Inhibitory Concentrations S. aureus 29213)	MIC (E. coli MC 4100; Escherichia coli, MC4100, read-out: Minimum Inhibitory Concentrations E. coli MC 4100)	MIC (E. faecalis RB1; Enterococcus faecalis, read-out: Minimum Inhibitory Concentrations E. faecalis RB1)
1-Cyclopropyl-7-(5,5-difluoro-4-hydroxy-4,5,6,7-tetrahydrobenzo[b]thiophen-2-yl)-6-fluoro-8-methyl-1H-quinazolinedione [Example 23b]	<0.06 µg/mL	0.13 µg/mL	2.0 µg/mL	0.5 µg/mL	16.0 µg/mL	1.0 µg/mL	1000 nM							
7-[(R)-3-(1-Aminocyclopropyl)pyrrolidin-1-yl]-1-cyclopropyl-6-fluoro-8-methyl-1 h-quinazolinedione Hydrochloride [Example 26b]	0.13 µg/mL	0.25 µg/mL	0.03 µg/mL	0.25 µg/mL	2.0 µg/mL	0.13 µg/mL		1600 nM						
7-[(R)-3-((S)-1-Aminoethyl)pyrrolidin-1-yl]-1-cyclopropyl-6-fluoro-5,8-dimethyl-1H-quinazolinedione Hydrochloride [Example 41c]	0.06 µg/mL	0.25 µg/mL	0.008 µg/mL	0.03 µg/mL	2.0 µg/mL	0.03 µg/mL		600 nM						
CC1COc2c(N3CC[C@@H]([C@H](C)N)C3)c(F)c(N)c3c(=O)[nH]c(=O)n1c23.Cl (stereo partly drawn) [Example 16d, 7-Amino-9-[9-(R)-3-((S)-1-aminoethyl)pyrrolidin-1-yl)-8-fluoro-3-methyl-2,3-dihydro-1-oxa-3a,5-diazaphenalene-4,6-dione Hydrochloride]	4.0 µg/mL	16.0 µg/mL	0.5 µg/mL	1.0 µg/mL	>64.0 µg/mL	1.0 µg/mL		25000 nM						
Cc1c(N2CCC(C(N)CF)C2)c(F)cc2c(=O)[nH]c(=O)n(C3CC3)c12.Cl (stereo not drawn) [Example 19f, 7-[3-(1-Amino-2-fluoroethyl)pyrrolidin-1-yl]-1-cyclopropyl-6-fluoro-8-methyl-1H-quinazolinedione Hydrochloride]	0.13 µg/mL	0.25 µg/mL	0.06 µg/mL	0.13 µg/mL	4.0 µg/mL	0.06 µg/mL	1800 nM							
Cc1c(-c2csc(CN)c2)c(F)cc2c(=O)[nH]c(=O)n(C3CC3)c12.Cl [Example 22j, 7-(5-Aminomethylthiophen-3-yl)-1-cyclopropyl-6-fluoro-8-methyl-1H-quinazoline-2,4-dione Hydrochloride]							1400 nM		1 µg/mL	1 µg/mL	0.25 µg/mL	1 µg/mL	8 µg/mL	2 µg/mL
